Experimental data from PMC9171976 (Frontiers in Nutrition, 2022).

Columns and labels:
[1] = male, human, in vivo, 20 mg
[2] = rats; single oral dose of green tea extract 400 mg/kg 30 min before simvastatin; cited from earlier work
clinical = conditions: male, human, in vivo, 20 mg
[3] = Simvastatin-herb pharmacokinetic interaction study, plasma simvastatin lactone and acid by LC-MS/MS; conditions: male, human, po, 20 mg
human OATP1B1 = test system: human OATP1B1; parameters: method as in PMID 32006472; conditions: low concentration; CHO cells; cited from earlier work
[4] = parameters: method as in PMID 24419562; conditions: healthy volunteers; cited from earlier work
[5] = same extract given daily for 2 weeks and simultaneously with the dose of rosuvastatin; cited from earlier work

SMILES: CCC(C)(C)C(=O)O[C@H]1C[C@@H](C)C=C2C=C[C@H](C)[C@H](CC[C@@H](O)C[C@@H](O)CC(=O)O)[C@H]21 [Simvastatin acid, simvastatin acid]
- AUC0–24h [1]: 12.1 (54.6) h⋅μg/L
- Increase of AUC0–6h with green tea extract [2]: 2.0 fold
- AUC(0-t) (clinical; AUC0–24h): 16.1 ng·h/mL
- half-life (clinical; po, T1/2): 3.94 h
- Tmax (clinical; po, Tmax): 3.5 h

SMILES: CCC(C)(C)C(=O)O[C@H]1C[C@@H](C)C=C2C=C[C@H](C)[C@H](CC[C@@H]3C[C@@H](O)CC(=O)O3)[C@H]21 [Simvastatin lactone, simvastatin]
- Effect of green tea extract on t1/2 [2]: no effect
- half-life ([3]; T1/2, 18 subjects, simvastatin 20 mg with green tea extract, geometric mean (% CV)): 4.96 h
- half-life ([3]; T1/2, 18 subjects, simvastatin 20 mg with soy isoflavones, geometric mean (% CV)): 4.51 h
- half-life ([3]; T1/2, SLCO1B1 521CC (n = 4), after green tea): 3.98 h
- half-life ([3]; T1/2, SLCO1B1 521CC (n = 4), after soy isoflavones): 3.9 h
- half-life ([3]; T1/2, SLCO1B1 521CC (n = 4), baseline): 4.83 h
- half-life ([3]; T1/2, SLCO1B1 521TC (n = 8), after green tea): 4.72 h
- half-life ([3]; T1/2, SLCO1B1 521TC (n = 8), after soy isoflavones): 4.71 h
- half-life ([3]; T1/2, SLCO1B1 521TC (n = 8), baseline): 4.54 h
- half-life ([3]; T1/2, SLCO1B1 521TT (n = 6), after green tea): 6.15 h
- half-life ([3]; T1/2, SLCO1B1 521TT (n = 6), after soy isoflavones): 4.71 h

SMILES: O=C(O[C@@H]1Cc2c(O)cc(O)cc2O[C@@H]1c1ccc(O)c(O)c1)c1cc(O)c(O)c(O)c1 [epicatechin gallate (ECG), epicatechin gallate]
- Stimulating effect on OATP1B1-mediated DCF uptake (human OATP1B1): about 160%

SMILES: CC(C)(C)NCC(O)COc1cccc2c1CC(O)C(O)C2 (stereo not shown) [nadolol]
- Reduction of systemic exposure with green tea taken as a drink [4]: 85%

SMILES: CC(C)c1nc(N(C)S(C)(=O)=O)nc(-c2ccc(F)cc2)c1/C=C/[C@@H](O)C[C@@H](O)CC(=O)O [rosuvastatin]
- Reduction of systemic exposure with green tea extract [5]: about 20%
